PMC9669016, “First-in-human phase Ia study of the PI3Kα inhibitor CYH33 in patients with solid tumors” (Nature Communications, 2022)
“And” between values parts separate entries of the source, which are not always exact repeats. Identical values can stand only once. Like-named read-outs stand apart in the source and are kept apart here.

Columns and labels:
advanced solid tumors = test: Radiological efficacy per RECIST 1.1 (ORR, DCR, CBR, PFS, DoR, best response); format: in vivo, human; design: key to Best response, individual patient: CR, complete response; PR, partial response; SD, stable disease; PD, progressive disease; Two best responses marked as NE represented SD lasting less than 5 weeks
Procedure: The primary endpoints of the phase Ia included (i) the type and frequency of treatment emergent adverse events (TEAEs) which were assessed per National Cancer Institute Common Terminology Criteria for Adverse Events (NCI-CTCAE) v4.03, laboratory results, electrocardiogram (ECG), cardiac imaging, physical examination findings (including vital signs, weight, and ECOG scores), (ii) number and proportion of subjects who occurred DLTs in each dose group during dose-escalation stage, (iii) the MTD, if the MTD was not observed, the RP2D will be determined through PK/PD data, safety and preliminary efficacy. The secondary endpoints included preliminary efficacy assessments based on ORR, PFS, DoR, DCR, and clinical benefit rate, assessed per RECIST 1.1,PK parameters for CYH33 and its metabolite I27, and changes in PD biomarkers in response to CYH33 treatment.
The analysis of the phase Ia study was pre-planned and reviewed by the SMC. The Kaplan–Meier method was used to summarize time-to-event endpoints. Response rates were summarized using a point estimate and 95% Clopper–Pearson confidence interval. The full analysis set (FAS) included all study patients who received at least one dose of study drug and was used for the analysis of baseline characteristics. The safety analysis set included all study patients who had received at least one dose of the study drug and was used for all safety analysis. The efficacy evaluable analysis set included patients who received at least one dose of CYH33 and had baseline tumor assessment data and at least one post-baseline tumor assessment. All statistical analyses were performed using SAS software v9.3 (Cary, North Carolina, USA). No data were excluded from the analyses. As a phase Ia, open label, dose-escalation and -expansion study, the study was not randomized, and the investigators were not blinded to allocation during trial and outcome assessment.

[1] = design: method as in Study Protocol CYH33-101 Table 2; conditions: ref Study Protocol CYH33-101 Table 2; cited from earlier work
[2] = tested on: KYSE410 human esophageal cancer xenograft; design: method as in Investigator's Brochure (IB) 12; conditions: ref Investigator's Brochure (IB) 12, cited from earlier work; for inhibition rate (tumor growth): multiple doses
[3] = tested on: KYSE410, KYSE510, EC104, EC063, EC074 xenograft models; design: method as in Investigator's Brochure (IB) 12; conditions: ref Investigator's Brochure (IB) 12, cited from earlier work
[4] = design: method as in Investigator's Brochure (IB) 12; conditions: ref Investigator's Brochure (IB) 12, cited from earlier work
CYP2C8 = tested on: CYP2C8; design: method as in Investigator's Brochure (IB) 12; conditions: up to 100 µM; ref Investigator's Brochure (IB) 12; cited from earlier work
CYP2C9 = tested on: CYP2C9; design: method as in Investigator's Brochure (IB) 12; conditions: up to 100 µM; ref Investigator's Brochure (IB) 12; cited from earlier work
Caco-2 cells = tested on: Caco-2 cells; design: method as in Investigator's Brochure (IB) 12; conditions: 2.00 - 10.0 µM; efflux transporters may be involved; ref Investigator's Brochure (IB) 12; cited from earlier work
[5] = evaluable analysis set, 30 mg QD, n = 9
[6] = evaluable analysis set, 40 mg QD, n = 19
[7] = evaluable analysis set, 1–20 mg QD, n = 10
[8] = evaluable analysis set, all patients 1–60 mg QD, n = 42
[9] = one patient, gastric cancer (PIK3CA E542K), 30 mg
[10] = one patient, ovarian cancer (PIK3CA E545A), 40 mg

## COC(=O)Nc1cc(C(F)(F)F)c(-c2nc(N3CCOCC3)c3cc(CN4CCN(S(C)(=O)=O)CC4)cn3n2)cn1 [CYH33, methyl (5-(6-((4-(methylsulfonyl)piperazin-1-yl)methyl)−4-morpholinopyrrolo[2,1-f][1,2,4]triazin-2-yl)−4-(trifluoromethyl)pyridin-2-yl)carbamate]
Advanced solid tumors; 1 mg, PIK3CA mutation Unknown
  Best percentage of change from baseline (sum of target lesion diameters), individual patient: 28.8%
  Best response, individual patient: PD
Advanced solid tumors; 5 mg, PIK3CA mutation Unknown
  Best percentage of change from baseline (sum of target lesion diameters), individual patient: 38.8%
  Best response, individual patient: PD
Advanced solid tumors; 10 mg, PIK3CA mutation Unknown
  Best percentage of change from baseline (sum of target lesion diameters), individual patient: -4.6% and 20.8%
  Best response, individual patient: SD and PD
Advanced solid tumors; 20 mg, PIK3CA E545K
  Best percentage of change from baseline (sum of target lesion diameters), individual patient: -84.4% and 13.7% and 12.6% and -23.8%
  Best response, individual patient: PR and PD and SD
Advanced solid tumors; 20 mg, PIK3CA mutation Unknown
  Best percentage of change from baseline (sum of target lesion diameters), individual patient: -6.4% and 1.0%
  Best response, individual patient: PD
Advanced solid tumors; 30 mg dose level
  confirmed ORR: 11.1%
Advanced solid tumors; 30 mg, PIK3CA E542K
  Best percentage of change from baseline (sum of target lesion diameters), individual patient: -22.2% and -39.5%
  Best response, individual patient: SD
Advanced solid tumors; 30 mg, PIK3CA E545K
  Best percentage of change from baseline (sum of target lesion diameters), individual patient: 9.7% and 23.8% and -61.8% and -16.5%
  Best response, individual patient: PD and PR and SD
Advanced solid tumors; 30 mg, PIK3CA H1047L
  Best percentage of change from baseline (sum of target lesion diameters), individual patient: -24.2%
  Best response, individual patient: SD
Advanced solid tumors; 30 mg, PIK3CA H1047R
  Best percentage of change from baseline (sum of target lesion diameters), individual patient: 12.5%
  Best response, individual patient: SD
Advanced solid tumors; 30 mg, PIK3CA mutation Other
  Best percentage of change from baseline (sum of target lesion diameters), individual patient: 10.0%
  Best response, individual patient: SD
Advanced solid tumors; 40 mg dose level
  confirmed ORR: 15.8%
Advanced solid tumors; 40 mg, PIK3CA E545A
  Best percentage of change from baseline (sum of target lesion diameters), individual patient: -100.0%
  Best response, individual patient: CR
Advanced solid tumors; 40 mg, PIK3CA E545K
  Best percentage of change from baseline (sum of target lesion diameters), individual patient: -47.1% and 13.1%
  Best response, individual patient: PR and PD
Advanced solid tumors; 40 mg, PIK3CA H1047R
  Best percentage of change from baseline (sum of target lesion diameters), individual patient: -20.0%
  Best response, individual patient: SD
Advanced solid tumors; 40 mg, PIK3CA Q546K
  Best percentage of change from baseline (sum of target lesion diameters), individual patient: -13.0%
  Best response, individual patient: SD
Advanced solid tumors; 40 mg, PIK3CA Q546R
  Best percentage of change from baseline (sum of target lesion diameters), individual patient: -36.0%
  Best response, individual patient: SD
Advanced solid tumors; 40 mg, PIK3CA mutation Other
  Best percentage of change from baseline (sum of target lesion diameters), individual patient: 8.1% and 2.2% and -29.0% and 12.8% and 7.7% and -28.9% and -13.9%
  Best response, individual patient: PD and SD and NE
Advanced solid tumors; 40 mg, PIK3CA mutation Unknown
  Best percentage of change from baseline (sum of target lesion diameters), individual patient: -66.7% and -13.8% and -13.1% and 28.3% and 0.0% and 38.8%
  Best response, individual patient: PR and SD and PD and NE
Advanced solid tumors; 60 mg, PIK3CA E545K
  Best percentage of change from baseline (sum of target lesion diameters), individual patient: 0.0%
  Best response, individual patient: SD
Advanced solid tumors; 60 mg, PIK3CA mutation Other
  Best percentage of change from baseline (sum of target lesion diameters), individual patient: 28.6%
  Best response, individual patient: PD
Advanced solid tumors; 60 mg, PIK3CA mutation Unknown
  Best percentage of change from baseline (sum of target lesion diameters), individual patient: -7.1% and 68.2%
  Best response, individual patient: PD
Advanced solid tumors; 1–20 mg dose level
  confirmed ORR: 10%
Advanced solid tumors; 42 evaluable patients
  patients with confirmed complete response: 1
  patients with confirmed partial responses (PR): 4
Advanced solid tumors; all evaluable patients (5/42)
  confirmed objective response rate (ORR; CR + PR): 11.9%
Advanced solid tumors; all evaluable patients (15/42)
  disease control rate (DCR; CR + PR + SD ≥ 6 weeks): 35.7%
Advanced solid tumors; breast cancer with PIK3CA mutations (2/5)
  confirmed response rate: 40%
Advanced solid tumors; [5]
  CBR: 1 (11.1) n (%)
  CR: 0 n (%)
  DCR (CR + PR + SD lasting ≥ 6 weeks): 1 (11.1) n (%)
  PR: 1 (11.1) n (%)
  confirmed ORR: 1 (11.1) n (%)
  mDoR (Kaplan–Meier): 80 days
  mPFS (Kaplan–Meier): 79 days
Advanced solid tumors; [6]
  CBR: 3 (15.8) n (%)
  CR: 1 (5.3) n (%)
  DCR (CR + PR + SD lasting ≥ 6 weeks): 10 (52.6) n (%)
  PR: 2 (10.5) n (%)
  confirmed ORR: 3 (15.8) n (%)
  mDoR (Kaplan–Meier): 152 days
  mPFS (Kaplan–Meier): 121 days
Advanced solid tumors; [7]
  CBR: 2 (20.0) n (%)
  CR: 0 n (%)
  DCR (CR + PR + SD lasting ≥ 6 weeks): 3 (30.0) n (%)
  PR: 1 (10.0) n (%)
  confirmed ORR: 1 (10.0) n (%)
  mDoR (Kaplan–Meier): 77 days
  mPFS (Kaplan–Meier): 47 days
Advanced solid tumors; [8]
  CBR: 6 (14.3) n (%)
  CR: 1 (2.4) n (%)
  DCR (CR + PR + SD lasting ≥ 6 weeks): 15 (35.7) n (%)
  PR: 4 (9.5) n (%)
  confirmed ORR: 5 (11.9) n (%)
  mDoR (Kaplan–Meier): 80 days
  mPFS (Kaplan–Meier): 79 days
Advanced solid tumors; evaluable patients harboring PIK3CA mutations (4/28)
  confirmed objective response rate: 14.3%
Advanced solid tumors; evaluable patients with PIK3CA mutations (13/28)
  DCR: 46.4%
Advanced solid tumors; one patient, breast cancer (Luminal B, HER2-, PIK3CA E545K), 40 mg
  DoR: 22.0 weeks
Advanced solid tumors; [9]
  time of progressive disease: 11 week
  time of treatment to PR: 6 weeks
Advanced solid tumors; [10]
  DoR (longest): 15.2 months
  time of treatment to CR: 29.3 weeks
  time of treatment to PR: 5.3 weeks
Advanced solid tumors; ovarian cancer with PIK3CA mutations (2/5)
  confirmed response rate: 40%
[1]
  log P: 2.89
[2]; 12.5 mg/kg oral for 21 days
  T/C ratio: approximately 30%
[2]; 12.5 mg/kg
  inhibition rate (tumor growth): > 67%
[2]; 25 mg/kg
  inhibition rate (tumor growth): > 90%
[2]; 50 mg/kg
  inhibition rate (tumor growth): > 95%
[3]; 50 mg/kg dose group, subcutaneous xenograft tumor model
  T/C%: < 20%
[3]; oral for 21 days
  effective dose in nude mice: 12.5 mg/kg
[4]
  number of metabolites detected in vivo: 14
  urinary excretion: less than 1 % of the dose
[4]; within 96 h after administration
  cumulative excretion of parent drug in feces: approximately 24 % of the dose
CYP2C8
  inhibition of CYP2C8: did not inhibit
CYP2C9
  inhibition of CYP2C9: did not inhibit
Caco-2 cells
  permeability: moderately permeable
